# Measurements taken from patent US20030195183A1, “Method for correcting immune system of live body” (priority 2000, published 2003).
# “Also recorded” adds a separate entry of the source.
# Key:
# [1] = tested on: humoral immune response to ram erythrocytes; experiment: titers of hemagglutinins, preparation five days after immunization with RE (productive phase); type: in vivo, mice
# [2] = anaphylactogenic activity; type: in vivo, guinea pigs
# Procedure: Allergenic effects of the preparation were evaluated on female guinea pigs weighing 250 to 300 g supplied by RF AMS Central Brooder of Laboratory Animals. A total of 70 guinea pigs have been studied. Intraperitoneal and intradermal injections of the preparations were used.
# The preparation under study was injected to three groups of guinea pigs in accordance with the following schedule: first 0.1-ml injection of various doses (1 μg, 10 μg and 100 μg) was made subcutaneously; second 0.1-ml injection of the preparation was made on the next day intramuscularly in the thigh; and the third 0.1-ml injection was made one day later. On day 21, the shocking injection of main pharmacological effect with single application was made.
# [3] = clinical case, treatment of duodenal ulcer; type: in vivo, human; conditions: Patient K
# Procedure: Apart from the studies on animals described above, clinical studies of immunocorrection activity of amino derivatives of 2,3-dihydrophthalazine-1,4-dione represented by sodium salt of 5-amino-2,3-dihydrophthalazine-1,4-dione in the treatment of various diseases on human, in particular, anti-inflammatory immunocorrecting activity in the treatment of ulcers, were carried out.
# Concomitant catarrhal bulbitis was present. The patient partly lost their working capacity due to this disease.
# Treatment: Periulceral injection of 100 mg of sodium salt of 5-amino-2,3-dihydrophthalazine-1,4-dione was made. One more injection of the preparation was made on the 7th day. The patient also received the preparation in Almagel suspension and, since the 7th day, in Maalox (in view of constipations). They were simultaneously treated with omeprazol in accordance with usual regimen and, since the 7th day, De-nol with trichopol.
# [4] = tested on: humoral immune response to ram erythrocytes; experiment: titers of hemagglutinins after simultaneous administration of preparation and RE (inductive phase); type: in vivo, mice
# [5] = 0.2 μg, Strain C57BL6 mice, 7 days
# [6] = 0.2 μg, Strain C57BL6 mice, 14 days
# [7] = 0.2 μg, Strain C57BL6 mice, 21 days
# [8] = 0.2 μg, Strain CBA mice, 7 days
# [9] = 0.2 μg, Strain CBA mice, 14 days
# [10] = 0.2 μg, Strain CBA mice, 21 days
# [11] = 2 μg, Strain C57BL6 mice, 7 days
# [12] = 2 μg, Strain C57BL6 mice, 14 days
# [13] = 2 μg, Strain C57BL6 mice, 21 days
# [14] = 20 μg, Strain C57BL6 mice, 7 days
# [15] = 20 μg, Strain C57BL6 mice, 14 days
# [16] = 20 μg, Strain C57BL6 mice, 21 days
# [17] = 20 μg, Strain CBA mice, 14 days
# [18] = 20 μg, Strain CBA mice, 21 days
# [19] = 200 μg, Strain C57BL6 mice, 7 days
# [20] = 200 μg, Strain C57BL6 mice, 14 days
# [21] = 200 μg, Strain C57BL6 mice, 21 days
# [22] = 200 μg, Strain CBA mice, 7 days
# [23] = 200 μg, Strain CBA mice, 14 days
# [24] = 200 μg, Strain CBA mice, 21 days
# [25] = sensitization 10 μg, shocking injection 100 μg, 10 animals
# [26] = sensitization 100 μg, shocking injection 100 μg, 10 animals
structure (smiles),measurement,setting,value
"Nc1cccc2c(=O)[nH][nH]c(=O)c12.[Na] [sodium salt of 5-amino-2,3-dihydrophthalazine-1,4-dione]",Titers of hemagglutinins,[1]; [5],0
same,Titers of hemagglutinins,[1]; [6],2 ± 0
same,Titers of hemagglutinins,[1]; [7],35 ± 10
same,Titers of hemagglutinins,[1]; [8],0
same,Titers of hemagglutinins,[1]; [9],9 ± 7
same,Titers of hemagglutinins,[1]; [10],0
same,Titers of hemagglutinins,[1]; [11],13 ± 11
same,Titers of hemagglutinins,[1]; [12],54 ± 50
same,Titers of hemagglutinins,[1]; [13],226 ± 201
same,Titers of hemagglutinins,"[1]; 2 μg, Strain CBA mice, 7 days",10 ± 8
same,Titers of hemagglutinins,"[1]; 2 μg, Strain CBA mice, 14 days",173 ± 110
same,Titers of hemagglutinins,"[1]; 2 μg, Strain CBA mice, 21 days",22 ± 10
same,Titers of hemagglutinins,[1]; [14],26 ± 19
same,Titers of hemagglutinins,[1]; [15],256 ± 0
same,Titers of hemagglutinins,[1]; [16],304 ± 105
same,Titers of hemagglutinins,"[1]; 20 μg, Strain CBA mice, 7 days",0
same,Titers of hemagglutinins,[1]; [17],236 ± 0
same,Titers of hemagglutinins,[1]; [18],23 ± 10
same,Titers of hemagglutinins,[1]; [19],0
same,Titers of hemagglutinins,[1]; [20],96 ± 42
same,Titers of hemagglutinins,[1]; [21],120 ± 95
same,Titers of hemagglutinins,[1]; [22],28 ± 13
same,Titers of hemagglutinins,[1]; [23],158 ± 120
same,Titers of hemagglutinins,[1]; [24],47 ± 30
same,effect on productive phase of immune response,"[1]; all doses, Strain CBA mice of high reaction",suppressive effect
same,level (titers) of hemagglutinins,"[1]; low reaction Strain C57BL6 mice, 21st day",tendency to increase; also recorded: significant increase
same,production of antibodies,"[1]; wide range of doses, Strain CBA mice, 7th and 14th days after immunization",inhibition
same,expression of anaphylactic activity,[2]; demonstrated only for high doses,very weak
same,Number of animals with expression of anaphylactic shock −,"[2]; sensitization 1.0 μg, shocking injection 100 μg, 10 animals",10
same,Weigl's index,"[2]; sensitization 10 μg, shocking injection 100 μg",0.2
same,Number of animals with expression of anaphylactic shock +,[2]; [25],2
same,Number of animals with expression of anaphylactic shock −,[2]; [25],7
same,Weigl's index,"[2]; sensitization 100 μg, shocking injection 100 μg",0.3
same,Number of animals with expression of anaphylactic shock +,[2]; [26],1
same,Number of animals with expression of anaphylactic shock ++,[2]; [26],1
same,Number of animals with expression of anaphylactic shock −,[2]; [26],5
same,pain,"[3]; 2nd day of treatment, with omeprazol and antacids",Significant weakening
same,pain,[3]; 7th day,completely disappeared
same,decrease in ulcer dimensions,[3]; by the 7th day,⅓
same,decrease in dimensions of ulcerous defect,[3]; by the 15th day of treatment,2/3
same,scarring of ulcer,"[3]; by the 21st day, total of 1,000 mg",completely scarred
same,Titers of hemagglutinins,[4]; [5],59 ± 58
same,Titers of hemagglutinins,[4]; [6],50 ± 48
same,Titers of hemagglutinins,[4]; [7],266 ± 200
same,Titers of hemagglutinins,[4]; [8],112 ± 106
same,Titers of hemagglutinins,[4]; [9],168 ± 109
same,Titers of hemagglutinins,[4]; [10],15 ± 13
same,Titers of hemagglutinins,[4]; [11],154 ± 57
same,Titers of hemagglutinins,[4]; [12],256 ± 0
same,Titers of hemagglutinins,[4]; [13],24 ± 20
same,Titers of hemagglutinins,"[4]; 2 μg, Strain CBA mice, 7 days",28 ± 26
same,Titers of hemagglutinins,"[4]; 2 μg, Strain CBA mice, 14 days",154 ± 97
same,Titers of hemagglutinins,"[4]; 2 μg, Strain CBA mice, 21 days",10 ± 8
same,Titers of hemagglutinins,[4]; [14],91 ± 64
same,Titers of hemagglutinins,[4]; [15],512 ± 0
same,Titers of hemagglutinins,[4]; [16],560 ± 160
same,Titers of hemagglutinins,"[4]; 20 μg, Strain CBA mice, 7 days",96 ± 37
same,Titers of hemagglutinins,[4]; [17],256 ± 0
same,Titers of hemagglutinins,[4]; [18],83 ± 70
same,Titers of hemagglutinins,[4]; [19],512 ± 0
same,Titers of hemagglutinins,[4]; [20],44 ± 42
same,Titers of hemagglutinins,[4]; [21],160 ± 138
same,Titers of hemagglutinins,[4]; [22],35 ± 33
same,Titers of hemagglutinins,[4]; [23],75 ± 59
same,Titers of hemagglutinins,[4]; [24],46 ± 32
same,titers of hemagglutinins (trend),"[4]; Strain C57BL6 animals of low reaction, 21st day, 0.2 or 20 μg per mouse",tendency to increase
